Reference: US20260028326A1, “COMPOUND BASED ON ISOINDOLINE-SUBSTITUTED GLUTARIMIDE BACKBONE AND USE THEREOF” (GLUETACS THERAPEUTICS (SHANGHAI) CO., LTD., priority 2022, published 2026)

Assays:
CCRF-CEM cells = assay: Tumor cell proliferation IC50 (CCK-8), CCRF-CEM; details: Homo sapiens, 96 h, read-out: IC50 for inhibiting the proliferation of tumor cells, CCRF-CEM;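 also: cell viability measured with CCK-8 reagent after compound treatment, IC50 taken from plotted growth inhibition curves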
Ramos cells = assay: Tumor cell proliferation IC50 (CCK-8), Ramos; details: Homo sapiens, 72 h, read-out: IC50 for inhibiting the proliferation of tumor cells, Ramos
Protocol: (§1) The tumor cells used herein were cultured in a cell culture medium listed in table A at 37° C. in an incubator with 5% CO2.
(§2) After the cells were treated with the compounds of the present disclosure for a period of time, the cell viability detection reagent was added to the culture medium for cell viability assessment according to the instructions provided with the CCK-8 kit. […] The growth inhibition of the compounds of the present disclosure on cells was plotted by Prism Graphpad software, and the IC50 values of the compounds of the present disclosure were calculated therefrom.

SU-DHL-6 cells = assay: Tumor cell proliferation IC50 (CCK-8), SU-DHL-6; details: Homo sapiens, SU-DHL-6, 72 h, read-out: IC50 for inhibiting the proliferation of tumor cells, SU-DHL-6
Protocol: (§3) Prior to experimentation, all cells used were correctly identified by STR profiling, and tested negative for mycoplasma through routine screenings.
as §2

MDA-MB-231 cells = assay: Tumor cell proliferation IC50 (CCK-8), MDA-MB-231; details: Homo sapiens, MDA-MB-231, 96 h, read-out: IC50 for inhibiting the proliferation of tumor cells, MDA-MB-231
Protocol: as §3, §2

[1] = biological target: human Cereblon WT GST-tagged protein (Homo sapiens (Human), UniProt Q96SW2); assay: CRBN-binding affinity, HTRF (CEREBLON BINDING kit)
human Cereblon WT GST-tagged protein, sequence (Q96SW2 whole entry): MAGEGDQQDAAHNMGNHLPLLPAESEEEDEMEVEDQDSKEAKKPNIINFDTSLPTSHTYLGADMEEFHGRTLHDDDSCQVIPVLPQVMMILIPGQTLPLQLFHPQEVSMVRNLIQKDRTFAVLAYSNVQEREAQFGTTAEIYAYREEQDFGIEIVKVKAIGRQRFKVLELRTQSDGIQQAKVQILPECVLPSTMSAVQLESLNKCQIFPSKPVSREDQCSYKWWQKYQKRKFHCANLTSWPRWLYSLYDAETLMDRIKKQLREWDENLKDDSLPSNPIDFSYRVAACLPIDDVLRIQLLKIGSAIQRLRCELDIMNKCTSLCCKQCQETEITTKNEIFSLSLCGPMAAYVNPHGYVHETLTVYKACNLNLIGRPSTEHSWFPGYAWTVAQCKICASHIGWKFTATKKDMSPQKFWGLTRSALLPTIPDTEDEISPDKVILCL
In short: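 GST-tagged human WT Cereblon incubated with compound, then Thalidomide-Re tracer and anti-GST Eu antibody added. Displacement read by HTRF, reported as CRBN binding inhibition rate against blank control wells without protein.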

IKZF3 protein = IKZF3 protein (Homo sapiens (Human), UniProt Q96SW2+Q9UKT9); assay: Western-blot assay of substrate protein degradation in hPBMC, IKZF3; assay type: cell-based; details: hPBMC cells, compound 500 nM, 24 hours, Western blot
IKZF3 protein, sequence (Q9UKT9 whole entry): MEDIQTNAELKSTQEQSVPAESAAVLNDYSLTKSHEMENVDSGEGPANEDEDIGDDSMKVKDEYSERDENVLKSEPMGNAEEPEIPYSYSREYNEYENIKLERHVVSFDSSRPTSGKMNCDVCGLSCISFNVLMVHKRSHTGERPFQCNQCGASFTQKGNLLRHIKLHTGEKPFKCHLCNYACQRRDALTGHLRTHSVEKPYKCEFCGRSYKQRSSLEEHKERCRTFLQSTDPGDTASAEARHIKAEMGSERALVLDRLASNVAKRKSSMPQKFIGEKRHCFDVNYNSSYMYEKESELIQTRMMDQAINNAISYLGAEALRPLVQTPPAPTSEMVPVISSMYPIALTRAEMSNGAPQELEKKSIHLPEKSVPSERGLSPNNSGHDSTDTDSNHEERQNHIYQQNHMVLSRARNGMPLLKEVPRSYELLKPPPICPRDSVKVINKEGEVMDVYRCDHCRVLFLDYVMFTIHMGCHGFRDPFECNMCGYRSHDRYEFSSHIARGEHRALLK
IKZF3 protein, sequence (Q96SW2 whole entry): as the sequence (Q96SW2 whole entry) above
IKZF3 protein, sequence (Q16531 whole entry partner): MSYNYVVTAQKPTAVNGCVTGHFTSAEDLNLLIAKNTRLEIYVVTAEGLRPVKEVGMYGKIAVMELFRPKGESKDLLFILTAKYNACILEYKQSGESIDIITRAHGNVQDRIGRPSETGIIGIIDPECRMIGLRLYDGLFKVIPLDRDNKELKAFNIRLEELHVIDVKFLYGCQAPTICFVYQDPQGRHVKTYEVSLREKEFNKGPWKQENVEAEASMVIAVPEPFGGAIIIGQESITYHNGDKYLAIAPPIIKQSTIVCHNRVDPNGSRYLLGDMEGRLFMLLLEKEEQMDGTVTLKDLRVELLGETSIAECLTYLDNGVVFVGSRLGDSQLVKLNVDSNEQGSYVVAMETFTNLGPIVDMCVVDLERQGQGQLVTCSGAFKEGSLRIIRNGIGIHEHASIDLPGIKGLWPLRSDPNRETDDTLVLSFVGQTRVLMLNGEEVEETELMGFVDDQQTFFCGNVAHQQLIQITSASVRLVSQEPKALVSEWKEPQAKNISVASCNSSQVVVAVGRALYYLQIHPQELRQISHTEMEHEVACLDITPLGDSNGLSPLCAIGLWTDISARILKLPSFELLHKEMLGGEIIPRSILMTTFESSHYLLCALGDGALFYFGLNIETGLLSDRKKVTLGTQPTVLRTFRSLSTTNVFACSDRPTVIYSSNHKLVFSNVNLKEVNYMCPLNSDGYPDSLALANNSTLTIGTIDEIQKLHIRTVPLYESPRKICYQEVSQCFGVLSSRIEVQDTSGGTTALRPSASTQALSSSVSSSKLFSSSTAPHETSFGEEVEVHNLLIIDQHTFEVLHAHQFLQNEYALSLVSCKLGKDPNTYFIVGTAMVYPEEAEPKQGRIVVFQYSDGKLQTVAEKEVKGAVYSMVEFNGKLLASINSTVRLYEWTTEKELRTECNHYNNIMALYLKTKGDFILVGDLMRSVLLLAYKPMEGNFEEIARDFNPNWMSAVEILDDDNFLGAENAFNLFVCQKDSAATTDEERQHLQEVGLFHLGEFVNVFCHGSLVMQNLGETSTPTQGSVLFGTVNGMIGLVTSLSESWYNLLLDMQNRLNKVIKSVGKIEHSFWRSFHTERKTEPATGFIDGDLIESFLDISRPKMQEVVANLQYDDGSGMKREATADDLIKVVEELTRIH

[2] = Pharmacokinetic study, oral administration, mouse plasma; assay type: in vivo, mice
Protocol: The experimental animals used can be those commonly used in pharmacokinetic experiments, e.g., adult and healthy rodents (e.g., mice, rats (such as Sprague-Dawley (SD) rats), guinea pigs) or non-rodents (rabbits, dogs, and monkeys). In the present disclosure, mice were used as the experimental animals.
The experimental animals were divided into two groups: a control group (for collecting blank plasma) and an orally administered group (dosed at 10 mg/kg or 30 mg/kg). Blood samples were collected at predetermined sampling time points after administration, such as 0.25 h, 0.5 h, 1 h, 2 h, 4 h, 8 h, and 24 h post-dosing. Blank plasma was collected from the control group.
Plasma samples were preprocessed before analysis: 10 μL of 50% acetonitrile and 200 μL of internal standard solution (containing 50 ng/mL dexamethasone in acetonitrile) were added to 10 μL of plasma samples. For the blank control group, the same volume of acetonitrile was added instead of the internal standard. The processed samples were vortexed, centrifuged, and the supernatant was taken for LC-MS/MS injection analysis.
After preparing standard curves and quality control (QC) samples, the concentrations of the compounds in the plasma samples were determined by LC-MS/MS analysis. Based on the plasma concentration data obtained from LC-MS/MS analysis, the pharmacokinetic parameters of the test compounds were calculated using the non-compartmental model in the pharmacokinetic calculation software WinNonlin v8.1.

IKZF1 protein = IKZF1 protein (Homo sapiens (Human), UniProt Q13422+Q96SW2); assay: Western-blot assay of substrate protein degradation in hPBMC, IKZF1; assay type: cell-based; details: hPBMC cells, compound 500 nM, 24 hours, Western blot
IKZF1 protein, sequence (Q13422 whole entry): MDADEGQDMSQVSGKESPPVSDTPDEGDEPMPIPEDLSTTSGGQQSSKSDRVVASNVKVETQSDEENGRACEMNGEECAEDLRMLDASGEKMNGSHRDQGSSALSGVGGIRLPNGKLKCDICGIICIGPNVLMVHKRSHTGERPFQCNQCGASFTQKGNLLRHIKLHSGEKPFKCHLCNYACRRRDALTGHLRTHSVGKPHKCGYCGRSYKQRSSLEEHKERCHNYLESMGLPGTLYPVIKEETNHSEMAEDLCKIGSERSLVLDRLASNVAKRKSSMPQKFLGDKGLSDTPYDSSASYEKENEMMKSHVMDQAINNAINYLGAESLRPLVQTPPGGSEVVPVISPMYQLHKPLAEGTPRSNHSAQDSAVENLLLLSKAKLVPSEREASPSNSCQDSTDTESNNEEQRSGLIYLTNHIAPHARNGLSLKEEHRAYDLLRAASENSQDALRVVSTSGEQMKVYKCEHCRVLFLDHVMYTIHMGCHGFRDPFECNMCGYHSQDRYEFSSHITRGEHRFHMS
IKZF1 protein, sequence (Q96SW2 whole entry): as the sequence (Q96SW2 whole entry) above
IKZF1 protein, sequence (Q16531 whole entry partner): as the sequence (Q16531 whole entry partner) above

SU-DHL-4 cells = assay: Tumor cell proliferation IC50 (CCK-8), SU-DHL-4; details: Homo sapiens, SU-DHL-4, 72 h, read-out: IC50 for inhibiting the proliferation of tumor cells, SU-DHL-4
Protocol: as §3, §2

Mino cells = assay: Tumor cell proliferation IC50 (CCK-8), Mino; details: Homo sapiens, 72 h, read-out: IC50 for inhibiting the proliferation of tumor cells, Mino;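 also: cell viability assessed with CCK-8 reagent after compound exposure, IC50 derived from plotted growth inhibition curves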
Protocol: as §1, §2

GSPT1 protein = GSPT1 protein (Homo sapiens (Human), UniProt P15170+Q96SW2); assay: Western-blot assay of substrate protein degradation in hPBMC, GSPT1; assay type: cell-based; details: hPBMC cells, compound 500 nM, 24 hours, Western blot
GSPT1 protein, sequence (P15170 whole entry): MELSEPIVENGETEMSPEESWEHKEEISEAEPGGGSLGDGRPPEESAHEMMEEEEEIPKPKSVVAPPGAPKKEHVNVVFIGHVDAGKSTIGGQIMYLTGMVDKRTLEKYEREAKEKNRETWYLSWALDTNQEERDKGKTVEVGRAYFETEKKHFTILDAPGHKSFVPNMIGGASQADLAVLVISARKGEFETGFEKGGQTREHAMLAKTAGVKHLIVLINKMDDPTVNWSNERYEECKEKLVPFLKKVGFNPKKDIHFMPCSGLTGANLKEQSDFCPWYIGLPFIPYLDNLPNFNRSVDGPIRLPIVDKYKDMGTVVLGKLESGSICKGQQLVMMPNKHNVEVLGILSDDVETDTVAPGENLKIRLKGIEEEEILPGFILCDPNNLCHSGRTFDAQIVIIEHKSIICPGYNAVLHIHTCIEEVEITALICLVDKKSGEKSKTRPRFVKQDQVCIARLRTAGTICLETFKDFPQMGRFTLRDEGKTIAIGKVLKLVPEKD
GSPT1 protein, sequence (Q96SW2 whole entry): as the sequence (Q96SW2 whole entry) above
GSPT1 protein, sequence (Q16531 whole entry partner): as the sequence (Q16531 whole entry partner) above

SW620 cells = assay: Tumor cell proliferation IC50 (CCK-8), SW620; details: Homo sapiens, SW-620, 96 h, read-out: IC50 for inhibiting the proliferation of tumor cells, SW620
Protocol: as §1, §2

MV-4-11 cells = assay: Tumor cell proliferation IC50 (CCK-8), MV-4-11; details: Homo sapiens, MV4-11, 96 h, read-out: IC50 for inhibiting the proliferation of tumor cells, MV-4-11
Protocol: as §1, §2

Daudi cells = assay: Tumor cell proliferation IC50 (CCK-8), Daudi; details: Homo sapiens, read-out: IC50 for inhibiting the proliferation of tumor cells, Daudi;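 also: cell viability read with CCK-8 reagent after compound exposure of Daudi cells, IC50 derived from plotted growth inhibition curves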
Protocol: as §1, §2

MM.1S cells = assay: Tumor cell proliferation IC50 (CCK-8), MM.1S; details: Homo sapiens, MM1.S, 72 h, read-out: IC50 for inhibiting the proliferation of tumor cells, MM.1S;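 also: viability of cultured cells read by CCK-8 reagent after compound exposure, growth inhibition curves fitted to derive IC50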
TMD8 cells = assay: Tumor cell proliferation IC50 (CCK-8), TMD8; details: Homo sapiens, TMD8, 72 h, read-out: IC50 for inhibiting the proliferation of tumor cells, TMD8
Protocol: as §1, §2

Kasumi-1 cells = assay: Tumor cell proliferation IC50 (CCK-8), Kasumi-1; details: Homo sapiens, Kasumi 1, 72 h, read-out: IC50 for inhibiting the proliferation of tumor cells, Kasumi-1
Protocol: as §1, §2

MM.1R cells = assay: Tumor cell proliferation IC50 (CCK-8), MM.1R; details: Homo sapiens, 72 h, read-out: IC50 for inhibiting the proliferation of tumor cells, MM.1R
Protocol: as §1, §2

| Structure (SMILES) | IC50 (CCRF-CEM cells) [µM] | IC50 (Ramos cells) [µM] | IC50 (SU-DHL-6 cells) [µM] | IC50 (MDA-MB-231 cells) [µM] | IC50 [1] [µM] | residual substrate protein level, IKZF3 (IKZF3 protein) | AUC(0-t) ([2]; p.o. 30 mg/kg) [µg·h/mL] | residual substrate protein level, IKZF1 (IKZF1 protein) | IC50 (SU-DHL-4 cells) [µM] | IC50 (Mino cells) [µM] | residual substrate protein level, GSPT1 (GSPT1 protein) | IC50 (SW620 cells) [µM] | IC50 (MV-4-11 cells) [µM] | AUC(0-t) ([2]; p.o. 10 mg/kg) [µg·h/mL] | IC50 (Daudi cells) [µM] | IC50 (MM.1S cells) [µM] | IC50 (TMD8 cells) [µM] | IC50 (Kasumi-1 cells) [µM] | IC50 (MM.1R cells) [µM] |
| --- | --- | --- | --- | --- | --- | --- | --- | --- | --- | --- | --- | --- | --- | --- | --- | --- | --- | --- | --- |
| O=C1CCC(N2Cc3cc(-c4ccc(CN5CCN(Cc6ccccc6-c6ccc(Cl)cc6)CC5)cc4)ccc3C2=O)C(=O)N1 (stereo not drawn) [GT-03356, 3-(5-(4-((4-((4′-chloro-[1,1′-biphenyl]-2-yl)methyl)piperazin-1-yl)methyl)phenyl)-1-oxoisoindolin-2-yl)piperidine-2,6-dione] | 1 to 5 | 5 to 10 | 0.1 to 0.5 |  |  |  |  |  |  |  |  |  |  |  |  |  |  |  |  |
| CC1(C)CCC(CN2CCN(Cc3cc(F)c4c(c3)CN(C3CCC(=O)NC3=O)C4=O)CC2)=C(c2ccc(Cl)cc2)C1 (stereo not drawn) [GT-03469, 3-(5-((4-((4′-chloro-5,5-dimethyl-3,4,5,6-tetrahydro-[1,1′-biphenyl]-2-yl)methyl)piperazin-1-yl)methyl)-7-fluoro-1-oxoisoindolin-2-yl)piperidine-2,6-dione] | 1 to 5 |  |  | 0.1 to 0.5 | 2.12 |  |  |  |  |  |  |  |  |  |  |  |  |  |  |
| O=C1CCC(N2Cc3c(ccc(CN4CCN(Cc5ccccc5-c5ccc(Cl)cc5)CC4)c3F)C2=O)C(=O)N1 (stereo not drawn) [GT-03694, 3-(5-((4-((4′-chloro-[1,1′-biphenyl]-2-yl)methyl)piperazin-1-yl)methyl)-4-fluoro-1-oxoisoindolin-2-yl)piperidine-2,6-dione] |  |  |  |  | 0.54 | A (A represents a residual substrate protein level of <50%) | > 0.5 | A (A represents a residual substrate protein level of <50%) | 0.1 to 0.5 | 0.005 to 0.01 | A (A represents a residual substrate protein level of <50%) | < 0.005 |  |  |  |  |  |  |  |
| CC1(C)CCC(CN2CCN(Cc3ccc4c(c3)CN(C3CCC(=O)NC3=O)C4=O)CC2)=C(c2ccc(Cl)cc2)C1 (stereo not drawn) [GT-02785, 3-(5-((4-((4′-chloro-5,5-dimethyl-3,4,5,6-tetrahydro-[1,1′-biphenyl]-2-yl)methyl)piperazin-1-yl)methyl)-1-oxoisoindolin-2-yl)piperidine-2,6-dione] | 0.01 to 0.05 | 0.1 to 0.5 |  | 0.05 to 0.1 | 3.07 | A (A represents a residual substrate protein level of <50%) |  | A (A represents a residual substrate protein level of <50%) |  | 0.005 to 0.01 | A (A represents a residual substrate protein level of <50%) | 0.05 to 0.1 | 0.024 | > 0.5 | 0.159 | < 0.005 | 0.1 to 0.5 | 0.05 to 0.1 | 0.01 to 0.05 |
| CC1(C)CCC(CN2CCN(Cc3cc4c(cc3F)C(=O)N(C3CCC(=O)NC3=O)C4)CC2)=C(c2ccc(Cl)cc2)C1 (stereo not drawn) [GT-03578, 3-(5-((4-((4′-chloro-5,5-dimethyl-3,4,5,6-tetrahydro-[1,1′-biphenyl]-2-yl)methyl)piperazin-1-yl)methyl)-6-fluoro-1-oxoisoindolin-2-yl)piperidine-2,6-dione] | < 0.005 | 0.01 to 0.05 | 1 to 5 | < 0.005 | 1.83 | A (A represents a residual substrate protein level of <50%) | > 0.5 | A (A represents a residual substrate protein level of <50%) | 0.1 to 0.5 |  | A (A represents a residual substrate protein level of <50%) |  |  |  |  | < 0.005 | 0.01 to 0.05 | < 0.005 | 0.005 to 0.01 |
| O=C1CCC(N2Cc3cc(CN4CCN(Cc5ccccc5-c5ccc(Cl)cc5)CC4)c(F)cc3C2=O)C(=O)N1 (stereo not drawn) [GT-03695, 3-(5-((4-((4′-chloro-[1,1′-biphenyl]-2-yl)methyl)piperazin-1-yl)methyl)-6-fluoro-1-oxoisoindolin-2-yl)piperidine-2,6-dione] |  |  |  |  | 1.17 | A (A represents a residual substrate protein level of <50%) | > 0.5 | A (A represents a residual substrate protein level of <50%) | 0.05 to 0.1 | 0.005 to 0.01 | A (A represents a residual substrate protein level of <50%) | 0.005 to 0.01 |  |  |  |  |  |  |  |
| CC1(C)CCC(CN2CCN(Cc3ccc4c(c3)CN(C3CCC(=O)NC3=O)C4=O)CC2)=C(c2ccc(F)cc2)C1 (stereo not drawn) [GT-03454, 3-(5-((4-((4′-fluoro-5,5-dimethyl-3,4,5,6-tetrahydro-[1,1′-biphenyl]-2-yl)methyl)piperazin-1-yl)methyl)-1-oxoisoindolin-2-yl)piperidine-2,6-dione] | 0.01 to 0.05 | 1 to 5 |  |  | 0.41 | A (A represents a residual substrate protein level of <50%) |  | A (A represents a residual substrate protein level of <50%) |  |  | A (A represents a residual substrate protein level of <50%) |  |  |  |  |  | 1 to 5 |  | 0.1 to 0.5 |
| CC1(C)CCC(CN2CCN(Cc3ccc4c(c3F)CN(C3CCC(=O)NC3=O)C4=O)CC2)=C(c2ccc(Cl)cc2)C1 (stereo not drawn) [GT-03468, 3-(5-((4-((4′-chloro-5,5-dimethyl-3,4,5,6-tetrahydro-[1,1′-biphenyl]-2-yl)methyl)piperazin-1-yl)methyl)-4-fluoro-1-oxoisoindolin-2-yl)piperidine-2,6-dione] | 0.01 to 0.05 | 0.1 to 0.5 |  | 0.01 to 0.05 | 2.96 | A (A represents a residual substrate protein level of <50%) | > 0.5 | A (A represents a residual substrate protein level of <50%) | 5 to 10 | 0.1 to 0.5 | A (A represents a residual substrate protein level of <50%) | 0.01 to 0.05 |  |  |  | 0.01 to 0.05 | 0.1 to 0.5 | 0.01 to 0.05 | 0.01 to 0.05 |
